These results are taken from patent US4711879A, “Acylated sugar derivatives, processes for their manufacture, and their use” (Ciba-Geigy Corporation, priority 1984, dated 1987).

Series [1] is described as follows: test for pyrogenity in rabbits (European Pharmacopoeia). It counts as in vivo. The following applies: 5 mg/kg i.v. On the procedure: The test for pyrogenity can be carried out in rabbits in accordance with the instructions given in the European Pharmacopoeia, Volume 2, pages 56 to 59 (1971). According to this test, for example N-propionyl- desmethylmuramyl-L-alanyl-D-isoglutaminyl-L-alanine-3-{2-[2-(2,6-dichlorophenylamino)-phenyl]-acetylamino}-2-hydroxypropylamide is not pyrogenic at a dose of 5 mg/kg i.v.

The test system of series [2] is viruses. Nature of the series: prophylaxis and treatment of virus infections in animals. The following applies: tests on animals. It counts as in vivo, mice or guinea pigs. The source says:
In these animal tests, animals, such as mice or guinea pigs, are infected with the most varied types of viruses at a dose that is lethal to all or the great majority of the untreated (control) animals, for example LD80-90, and the course of the infection is observed in the untreated control animals in comparison with animals treated with one of the above-mentioned compounds or a salt thereof before, simultaneously with or after infection.
These compounds of the formula I are effective in as low a dosage range as from 0.0001 mg/kg to 0.1 mg/kg in the above-mentioned test in mice.

Consider `CCC(=O)N(C1O[C@H](CO)[C@@H](O)[C@H](OCC(=O)O)[C@H]1N)[C@@H](C)C(=O)N[C@H](CCC(=O)N[C@@H](C)C(=O)NCC(O)CNC(=O)Cc1ccccc1Nc1c(Cl)cccc1Cl)C(N)=O` (stereo partly drawn) [Example 6, N-propionyldesmethylmuramyl-L-alanyl-D-isoglutaminyl-L-alanine-3-{2-[2-(2,6-dichlorophenylamino)-phenyl]acetylamino}-2-hydroxypropylamide], for which the pyrogenity result in series [1] is reported as “not pyrogenic”.
In the case of “(1α,β),4,6-tri-O-acetyl-N-propionyldesmethylmuramyl-L-alanyl-D- isoglutaminyl-L-alanine-3-[d-2-(6-methoxy-2-naphthyl]-propionylamino]-2-acetoxypropylamide [Example 21]”, the “suitability for prophylaxis and treatment of virus infections” value in series [2] was “outstandingly suitable for the prophylaxis and treatment of virus infections”.
